The values that follow come from PubChem BioAssay (NCI).

SMILES strings stand for the structures.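 Exposure lasted 48 hours, with cells grown in 96-well plates and compounds tested at five concentrations. TGI: total growth inhibition.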

Some test systems named below: 786-0 renal; COLO 205 colon; EKVX NSCLC; HS 578T breast; LOX IMVI melanoma; OVCAR-8 ovarian; PC-3 prostate; SK-MEL-28 melanoma; TK-10 renal; HOP-62 NSCLC.
Common to all, as to assay: DTP human tumour cell line panel, 48 h

For orientation: TGI means the concentration at which net growth stops. For the compound `Cc1cc2c(cc1-c1cc3c(cc1C)C(C(C)C)=C(O)C(=O)/C3=C\Nc1ccccn1)/C(=C/Nc1ccccn1)C(=O)C(O)=C2C(C)C`, the TGI in the experiment on 786-0 renal, in the experiment with COLO 205 colon, with EKVX NSCLC, with HS 578T breast, in the experiment on LOX IMVI melanoma and in the experiment with OVCAR-8 ovarian was > 100 µM in each case. Further, the TGI in the experiment on PC-3 prostate, in the experiment with SK-MEL-28 melanoma and with TK-10 renal was > 100 µM in each case.

For `COc1ccc(C=NCCCN=Cc2ccc(OC)cc2O)c(O)c1`, the TGI in the experiment on 786-0 renal was > 100 µM; in the experiment on EKVX NSCLC, > 100 µM; in the experiment with HOP-62 NSCLC, > 100 µM; in the experiment with HS 578T breast, 63.7 µM; with OVCAR-8 ovarian, > 100 µM; in the experiment on PC-3 prostate, > 100 µM. For the same compound, the TGI in the experiment with SK-MEL-28 melanoma and in the experiment with TK-10 renal was > 100 µM throughout.

Take `CC(=O)N1CCN(CCCCN2c3ccccc3Sc3cc(N=[N+]=[N-])ccc32)CC1`: the TGI in the experiment on 786-0 renal was determined as 29.5 µM; with COLO 205 colon it was 29.7 µM; in the experiment with EKVX NSCLC, 32.7 µM; in the experiment on HOP-62 NSCLC, 27.4 µM; with HS 578T breast, 32.7 µM; in the experiment with LOX IMVI melanoma, 30.9 µM. Further, the TGI was determined as 32 µM in the experiment on OVCAR-8 ovarian, 20 µM with PC-3 prostate, 33.4 µM in the experiment on SK-MEL-28 melanoma and 31.3 µM with TK-10 renal.

For the compound `N#Cc1c(O)c(C=O)c(=O)n2c1[nH]c1ccccc12`, the TGI with 786-0 renal, in the experiment on COLO 205 colon, in the experiment with EKVX NSCLC, in the experiment with HOP-62 NSCLC, in the experiment with HS 578T breast and in the experiment on LOX IMVI melanoma was > 100 µM each time. Moreover, the TGI in the experiment on OVCAR-8 ovarian, in the experiment on PC-3 prostate, in the experiment on SK-MEL-28 melanoma and in the experiment on TK-10 renal was > 100 µM each time.

As to `CN1C(=O)[C@@H]2[C@@H]3c4ccccc4N[C@@H]3c3[nH]c4ccccc4c3[C@@H]2C1=O`, the TGI with COLO 205 colon was 36.5 µM; in the experiment with EKVX NSCLC it was > 100 µM; with HOP-62 NSCLC it was 43.5 µM; with HS 578T breast, 76.5 µM; in the experiment with LOX IMVI melanoma, 46.6 µM; in the experiment on OVCAR-8 ovarian, 63.1 µM. In addition, the TGI with PC-3 prostate amounted to 50.5 µM; with SK-MEL-28 melanoma, 67.9 µM; with TK-10 renal, 77.6 µM.

Take `CC(=O)CC12NC(=O)N(C)N=C1N(C)C(=O)N(C)C2=O` (stereo unspecified): the TGI in the experiment with 786-0 renal is > 100 µM; in the experiment on COLO 205 colon it was > 100 µM; in the experiment with EKVX NSCLC it was > 100 µM; with HOP-62 NSCLC, > 100 µM; with HS 578T breast it was > 100 µM; in the experiment on LOX IMVI melanoma, 40.8 µM. Besides, the TGI with OVCAR-8 ovarian, with PC-3 prostate, in the experiment on SK-MEL-28 melanoma and in the experiment on TK-10 renal was > 100 µM each time.

Regarding `O=C(CBr)NCCc1c[nH]c2ccccc12`, the TGI in the experiment on 786-0 renal was 2.74 µM; in the experiment with COLO 205 colon, 3.19 µM; with EKVX NSCLC, 3.72 µM; in the experiment with HS 578T breast, 42.2 µM; with LOX IMVI melanoma, 2.79 µM; with OVCAR-8 ovarian it was > 48.3 µM. Also, the TGI turned out to be 4.03 µM in the experiment on PC-3 prostate, 11.3 µM in the experiment on SK-MEL-28 melanoma and 3.37 µM in the experiment with TK-10 renal.

Consider `Cc1ccc(Cc2n[nH]c(=O)n2N2C(=O)c3ccccc3C2=O)cc1`, for which the TGI in the experiment with 786-0 renal, in the experiment with COLO 205 colon, in the experiment on EKVX NSCLC, with HOP-62 NSCLC, with HS 578T breast and in the experiment on LOX IMVI melanoma was > 100 µM in each case. Further, the TGI with OVCAR-8 ovarian, with PC-3 prostate, in the experiment on SK-MEL-28 melanoma and with TK-10 renal was > 100 µM in each case.

As to `CC(C)(/C=N/O)/[N+]([O-])=C/c1ccccc1`, the TGI with 786-0 renal, in the experiment on COLO 205 colon, with EKVX NSCLC, in the experiment on HOP-62 NSCLC, in the experiment with HS 578T breast and with LOX IMVI melanoma was > 100 µM in each case. The TGI in the experiment on OVCAR-8 ovarian, in the experiment on PC-3 prostate, with SK-MEL-28 melanoma and in the experiment with TK-10 renal was > 100 µM each time.

Regarding `COc1cccc(/C=N/NC(=O)CN(C)C)c1O`, the TGI in the experiment on 786-0 renal, in the experiment on COLO 205 colon, with EKVX NSCLC, in the experiment with HOP-62 NSCLC, in the experiment with HS 578T breast and in the experiment with LOX IMVI melanoma was > 100 µM in each case. Besides, the TGI in the experiment on OVCAR-8 ovarian, in the experiment on PC-3 prostate, in the experiment with SK-MEL-28 melanoma and in the experiment with TK-10 renal was > 100 µM in each case.

Regarding `COc1ccc(N2C(=O)C(=O)C3(CCCCC3)C2=O)c(OC)c1OC`, the concentration for total growth inhibition (TGI) in the experiment with 786-0 renal, in the experiment with COLO 205 colon, with EKVX NSCLC, in the experiment on HS 578T breast, in the experiment on LOX IMVI melanoma and with OVCAR-8 ovarian was > 100 µM throughout. The TGI in the experiment on PC-3 prostate, in the experiment with SK-MEL-28 melanoma and with TK-10 renal was > 100 µM throughout.

As to `CC1(C)OC2OC(C(=O)c3ccccc3)C3OC(C)(C)OC3C2O1` (stereo unspecified), the TGI with 786-0 renal, in the experiment on COLO 205 colon, in the experiment on EKVX NSCLC, in the experiment on HOP-62 NSCLC, in the experiment on HS 578T breast and in the experiment with LOX IMVI melanoma was > 100 µM in each case. The TGI with OVCAR-8 ovarian, in the experiment on PC-3 prostate and in the experiment with TK-10 renal was > 100 µM each time.

Turning to `CC1=C(C(=O)NCCCN(CCO)CCO)CC(C(=O)NCCCN(CCO)CCO)=C(C)N1`, the TGI with 786-0 renal, in the experiment on COLO 205 colon, in the experiment with EKVX NSCLC, in the experiment with HOP-62 NSCLC, in the experiment with HS 578T breast and with LOX IMVI melanoma was > 100 µM throughout. Also, the TGI in the experiment on OVCAR-8 ovarian, with PC-3 prostate and with TK-10 renal was > 100 µM in each case.

For the compound `COc1cc(/C=C/C2=NN(c3cccc(S(=O)(=O)O)c3)C3(C2)SCC(=O)N3c2nc3ccccc3s2)cc(OC)c1OC` (stereo unspecified), the TGI in the experiment on 786-0 renal was 37.5 µM; in the experiment on COLO 205 colon it was > 100 µM; in the experiment with EKVX NSCLC it was > 100 µM; in the experiment with HS 578T breast, > 100 µM; in the experiment on LOX IMVI melanoma, 40.7 µM; in the experiment on OVCAR-8 ovarian, > 100 µM. The values for the TGI with PC-3 prostate, in the experiment with SK-MEL-28 melanoma and in the experiment with TK-10 renal were > 100 µM, > 100 µM and 93.3 µM, respectively.
